Here are results for 9 molecules from article PMC8813873, “The HGR motif is the antiangiogenic determinant of vasoinhibin: implications for a therapeutic orally active oligopeptide” (Angiogenesis, 2021).

Data set [1] deals with HUVEC. The settings on record: for Span: span of fitted dose-response curve, VEGF + bFGF-induced HUVEC proliferation relative to lowest and highest dose of CRIVi45-51. Here is the method:
HUVEC were seeded at 14,000 cells cm^−2 in a 96-well plate and, after 24 h, starved with 0.5% FBS for 12 h. The medium was refreshed with 20% FBS-F12K and incubated with 100 μg mL^−1 heparin together with 25 ng mL^−1 VEGF and 20 ng mL^−1 bFGF for 24 h in combination with a single dose (100 nM) or different concentrations of PRL, vasoinhibin, or synthetic oligopeptides. DNA synthesis was quantified by the DNA incorporation of the thymidine analog 5-ethynyl-2’-deoxyuridine (EdU, Sigma) labeled by the click reaction with fluorescent Azide Fluor 545 (Sigma-Aldrich) as reported.
Endothelial cell proliferation. BUVEC-E6E7 cells seeded at 14,000 cells cm^-2 in a 96-well plate were starved with 0.1% FBS for 24 h and treated or not with VEGF (50 ng mL^-1) in starvation medium with or without different concentrations of five peptides synthesized along the 45 to 58 residue sequence of human PRL or with recombinant vasoinhibin of 123 amino acids (positive control). HUVEC cells were seeded at 14,000 cells cm^-2 in a 96-well plate for 24 h and starved with 0.5% FBS for 12 h. Medium was then replaced by 20% FBS-F12K and 100 μg mL^-1 heparin containing or not VEGF (25 ng mL^-1), bFGF (20 ng mL^-1), IL-1b (10 ng mL^-1), or BK (10 μM) or a combination of 25 ng mL^-1 of VEGF and 20 ng mL^-1 of bFGF for 24 h in the presence or absence of a single dose (100 nM) or different doses of PRL (negative control), recombinant vasoinhibin, Vi45-51, synthetic peptides having the same residue composition as the 45-51 segment but in scrambled order (negative control), Vi45-51 subjected to alanine scanning mutagenesis, a tripeptide comprising residues 46 to 48 of vasoinhibin (Vi46-48), a Vi45-51 where G47 was deleted (des-G^47), a conserved version of the Vi45-51 (cVi45-51) and the QGR tripeptide, heptapeptides comprising residues 39 to 45 of growth hormone (GH39-45) or placental lactogen (PL39-45), tripeptides EQK and QKY, the dipeptide QK (Table S2), alanine mutants of the vasoinhibin with 123 residues (Vi-H46A, Vi-R48A, Vi-H46A/R48A), alanine mutants of PRL (PRL-E161A, PRL-E162A, PRL-E161A/E162A), CRIVi45-51, antiangiogenic proteins (endostatin, angiostatin), antiangiogenic oligopeptides (anginex, cilengitide), or antiangiogenic tyrosine-kinase inhibitors (pazopanib, sunitinib, sorafenib). DNA synthesis was quantified by the DNA incorporation of the thymidine analogue 5-ethynyl-2’-deoxyuridine (EdU, Sigma) added at the time of treatments and labelled by the click reaction with fluorescent Azide Fluor 545 (Sigma-Aldrich) as reported. Images were obtained in a fluorescent inverted microscope (Olympus IX51, Japan) and quantified using the CellProfiler software. The number of EdU-positive cells over total DNA (Hoechst)-stained cells was expressed as percentage proliferation. B16-F10 cells and HUVEC were seeded at 12,600 cells cm^-2 and 7,400 cells cm^-2, respectively, in a 24-well plate and incubated for different times in complete medium in the absence or presence of 100 nM CRIVi45-51 added every 24 h. Cells were trypsinized and counted.

Data set [2] has as its system HUVEC. The experiment in a line: HUVEC cell density over time (cell counting). It counts as cell-based, human. The settings on record: 100 nM added every 24 h, complete medium, n = 9. On the procedure:
(§1) Endothelial cell proliferation. BUVEC-E6E7 cells seeded at 14,000 cells cm^-2 in a 96-well plate were starved with 0.1% FBS for 24 h and treated or not with VEGF (50 ng mL^-1) in starvation medium with or without different concentrations of five peptides synthesized along the 45 to 58 residue sequence of human PRL or with recombinant vasoinhibin of 123 amino acids (positive control). HUVEC cells were seeded at 14,000 cells cm^-2 in a 96-well plate for 24 h and starved with 0.5% FBS for 12 h. […] DNA synthesis was quantified by the DNA incorporation of the thymidine analogue 5-ethynyl-2’-deoxyuridine (EdU, Sigma) added at the time of treatments and labelled by the click reaction with fluorescent Azide Fluor 545 (Sigma-Aldrich) as reported. Images were obtained in a fluorescent inverted microscope (Olympus IX51, Japan) and quantified using the CellProfiler software. The number of EdU-positive cells over total DNA (Hoechst)-stained cells was expressed as percentage proliferation. […] Cells were trypsinized and counted.

The target of the next data set is pepsin (Sus scrofa, UniProt P00791). Put plainly: Pepsin digestion, residual antiproliferative activity. The settings on record: 4 μM, 1:20 protease to substrate molar ratio, 40 mM HCl, 37 °C, 5 h; read-out inhibition of VEGF + bFGF-induced HUVEC proliferation at 10 nM, n = 9.
The test system of the next data set is B16-F10 melanoma tumors. The experiment in a line: B16-F10 melanoma tumor model. The following applies: C57BL6 mice. It counts as in vivo. Here is the method:
The mouse model of primary tumor development based on the use of B16-F10 melanoma cells was used as previously reported. Briefly, anesthetized female C57BL6 mice (8–12 weeks-old) were inoculated into their right flank with 10^5 B16-F10 cells. Five days after tumor cell inoculation, mice were treated daily with vehicle (NS) or CRIVi45–51 injected into the lateral tail vein or via intragastric gavage for the 8 d following tumor cell injection. Animals were then euthanized by cervical dislocation and the tumors weighted and processed to evaluate blood vessels by immunofluorescence or RT-qPCR.
Tumor model. Female C57BL6 mice (8-12 weeks-old) under 2.5% isoflurane anesthesia (SomnoSuite system, Kent Scientific, Torrington, CT) were inoculated into their right flank with 10^5 B16-F10 cells in 50 μL PBS. Tumor length and width were measured daily, and volume was estimated by the formula: Volume = (length x width^2) x 0.5. Five days after tumor cell inoculation, mice were injected daily into the lateral tail vein with vehicle (normal saline) or 0.1 or 1.0 mg kg^-1 CRIVi45-51, and tumor volumes were assessed daily for the following 8 d. In other experiments, 1.0 mg kg^-1 CRIVi45-51 or vehicle was delivered daily intragastrically through a 20G x 1.5’’ curved metal gavage canula (Cadence Science, Staunton, VA) for the 8 d following tumor cell injection. Animals were then euthanized by cervical dislocation and the tumors processed or frozen to evaluate blood vessels by immunofluorescence or RT-qPCR, respectively. […] Tumor sections were cover-slipped with Vectashield H-1000 (Vector Laboratories) and digitalized at 20X and 40X magnification under a fluorescence microscope (Olympus BX60). The number of vessels per tumor area measured vascular density. CD-31 and VE-Cad mRNA levels were quantified by RT-qPCR following the method already described in the retinal angiogenesis assay section.

Another data set concerns B16-F10 cells. The experiment in a line: B16-F10 cell growth in vitro (cell counting). It counts as cell-based, mouse. The following applies: 100 nM added every 24 h, cell density over time, n = 9. Here is the method:
as §1

Data set [3] in a line: Heat treatment, residual antiproliferative activity. It counts as physicochemical. The following applies: 2 μM solution, 97 °C, 15 min; read-out inhibition of VEGF + bFGF-induced HUVEC proliferation at 10 nM, n = 9.
Where [4] appears, read: VEGF 25 ng/mL + bFGF 20 ng/mL-induced HUVEC proliferation, 24 h, EdU incorporation, non-linear best fit, n = 9.

Like-named read-outs stand apart in the source and are kept apart here. Square brackets hold non-standard residues; d marks the D form. Ends that are not written are not given here. Peptide text beside a SMILES is read from it.

Sequence of pepsin (P00791 60-385): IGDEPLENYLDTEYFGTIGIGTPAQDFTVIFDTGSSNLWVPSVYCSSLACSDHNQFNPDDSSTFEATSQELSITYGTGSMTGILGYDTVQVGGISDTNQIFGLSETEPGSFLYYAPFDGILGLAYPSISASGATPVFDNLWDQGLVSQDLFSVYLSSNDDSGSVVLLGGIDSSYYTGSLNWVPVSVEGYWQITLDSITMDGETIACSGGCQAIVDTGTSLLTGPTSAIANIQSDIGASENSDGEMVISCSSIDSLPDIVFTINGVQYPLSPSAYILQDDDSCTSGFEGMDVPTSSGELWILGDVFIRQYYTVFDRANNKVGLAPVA

As usually defined, the IC50 is the point on the concentration scale where inhibition reaches its midpoint. Take Endostatin: the IC50 with HUVEC [1] (setting [4]) came to 31.2 nM. In the data set with HUVEC [1] (non-linear best fit, n = 9), the Span is on record as 49.98%.

On to Angiostatin, for which the half-maximal inhibitory concentration (IC50) in the data set with HUVEC [1] (setting [4]) stood at 0.388 nM. Also, the Span in the data set with HUVEC [1] (non-linear best fit, n = 9) amounted to 68.47%.

Consider “Ac-THGRGFI-NH2 [Vi45–51, vasoinhibin-(45-51)-peptide]”, for which the IC50 in the data set on HUVEC [1] (24 h) was about 0.15 nM.

“ANIKLSVQMKLFKRHLKWKIIVKLNDGRELSLD [Anginex, reference compound]”: the Span in the data set with HUVEC [1] (non-linear best fit, n = 9) came to 73.13%.

In the case of `CCN(CC)CCNC(=O)c1c(C)[nH]c(/C=C2\C(=O)Nc3ccc(F)cc32)c1C` [Sunitinib, reference compound], in the data set with HUVEC [1] (non-linear best fit, n = 9), the Span stood at 93.64%.

`CC[C@@H](C)[C@H]1NC(=O)[C@@H]([C@H](C)O)NC(=O)[C@@H](Cc2c[nH]cn2)NC(=O)CNC(=O)[C@@H](CCCNC(=N)N)NC(=O)CNC(=O)[C@@H](Cc2ccccc2)NC1=O` [CRIVi45–51, cyclic-retro-inverse-vasoinhibin-(45–51)-peptide] (cyclo([dI][dF]G[dR]G[dH][dT])): the “HUVEC cell density over time” value in the data set on HUVEC [2] is reported as “reduces proliferation”. Further, the “resistance to pepsin degradation” value on pepsin is given as “resistant”. The “tumor growth, oral administration” value with B16-F10 melanoma tumors (B16-F10, 1.0 mg/kg daily intragastric gavage, 8 d, n = 9) was “decreased tumor growth with similar efficacy to intravenous delivery”. Further, the “tumor growth, intravenous” value with B16-F10 melanoma tumors (B16-F10, daily i.v. 0.1 or 1.0 mg/kg for 8 d from day 5, n = 9) is on record as “reduced tumor growth in a dose-related manner”. In addition, the “tumor vascular density and expression of CD31” value in the data set with B16-F10 melanoma tumors (B16-F10 tumors, daily i.v., n = 9) was “reduce”. The “growth of melanoma cells in vitro” value with B16-F10 cells is reported as “did not inhibit”. Also, in the data set with HUVEC [1] (ratio of IC50 values, VEGF + bFGF-induced HUVEC proliferation), the “fold lower IC50 than other antiangiogenic proteins (endostatin and angiostatin) and peptides (anginex and cilengitide)” value is given as 2.7- to 214 fold. The Span in the data set with HUVEC [1] (non-linear best fit, n = 9) is given as 86.86%. In addition, in data set [3], the “activity after heat inactivation” value is on record as “retained full activity”.

Turning to `Cc1ccc(Nc2nccc(N(C)c3ccc4c(C)n(C)nc4c3)n2)cc1S(N)(=O)=O` [Pazopanib, reference compound], the Span in the data set on HUVEC [1] (non-linear best fit, n = 9) is reported as 83.73%.

For `CNC(=O)c1cc(Oc2ccc(NC(=O)Nc3ccc(Cl)c(C(F)(F)F)c3)cc2)ccn1` [Sorafenib, reference compound], the Span with HUVEC [1] (non-linear best fit, n = 9) is recorded as 106.00%.

B1: PRL: Recombinant human prolactin (protein, UniProt P01236 29-227, looked up)
Prolactin: LPICPGGAARCQVTLRDLFDRAVVLSHYIHNLSSEMFSEFDKRYTHGRGFITKAINSCHTSSLATPEDKEQAQQMNQKDFLSLIVSILRSWNEPLYHLVTEVRGMQEAPEAILSKAVEIEEQTKRLLEGMELIVSQVHPETKENEIYPVWSGLPSLQMADEESRLSAYYNLLHCLRRDSHKIDNYLKLLKCRIIHNNNC
As for B1, the “dose-response inhibition of VEGF + bFGF-induced HUVEC proliferation (result in words)” value with HUVEC [1] (VEGF 25 ng/mL + bFGF 20 ng/mL, 24 h, EdU, n = 9) was “not antiangiogenic”.
